Laboratory results: patent publication US20240279228A1, “NOVEL SALTS AND CRYSTALS” (INTRA-CELLULAR THERAPIES, INC., priority 2021, published 2024)
Where a name gives a salt, the structure may show the parent alone. Read-outs that look alike come from different tables or passages of the source.

What was measured:
[1] = Colour and chemical stability of the solid salt in air; format: physicochemical; conditions: for Colorization: tosylate salt product of process experiment
[2] = Hygroscopicity of Compound A free base; format: physicochemical
[3] = Solubility of Compound A free base in solvents; format: physicochemical
[4] = Decomposition of salt crystals by NMR; format: physicochemical; conditions: crystals from salt screening
Experimental: Further experiments are performed using some of the successful acid/solvent/method conditions from Example 1, with variations in the solvent volume and/or material concentrations and/or changes to the molar ratio of Compound A free base to acid (1:1.2, 1:1.5 or 1:2). Some experiments are further repeated at a 500 mg scale for confirmation of the results, including additional analysis, including 1H-NMR, DSC/TGA, and/or FTIR.

[5] = Solubility of the salts in water; format: physicochemical; conditions: salt
[6] = solid tosylate salt of WO2020/131895, on standing; cited from earlier work

Q: With `O=C1CN2c3c(cccc3[C@@H]3CN(CCCOc4ccc(F)cc4)CC[C@@H]32)N1` [Compound 3-2] as the compound, how does the Colorization [1] read?
A: Its Colorization is “Yes”.

Q: Which Colorization [1] does the source give for `O=C1CN2c3c(cccc3[C@@H]3CN(CCCOc4ccc(F)cc4)CC[C@@H]32)N1` [Compound 5-1] here?
A: Its Colorization is “No”.

Q: For `O=C1CN2c3c(cccc3[C@@H]3CN(CCCOc4ccc(F)cc4)CC[C@@H]32)N1` [Compound 5-2], which Colorization [1] is on record?
A: The Colorization was “No”.

Q: Which Colorization [1] does the source give for `O=C1CN2c3c(cccc3[C@@H]3CN(CCCOc4ccc(F)cc4)CC[C@@H]32)N1` [Compound 5-3] here?
A: The Colorization was “No”.

Q: Which Colorization [1] does the source give for `O=C1CN2c3c(cccc3[C@@H]3CN(CCCOc4ccc(F)cc4)CC[C@@H]32)N1` [Compound 5-4] here?
A: The Colorization was “No”.

Q: With `O=C1CN2c3c(cccc3[C@@H]3CN(CCCOc4ccc(F)cc4)CC[C@@H]32)N1` [Compound 5-5] as the compound, how does the Colorization [1] read?
A: Its Colorization is “Slight”.

Q: For `O=C1CN2c3c(cccc3[C@@H]3CN(CCCOc4ccc(F)cc4)CC[C@@H]32)N1` [Compound A, (6bR,10aS)-8-(3-(4-fluorophenoxy)propyl)-6b,7,8,9,10,10a-hexahydro-1H-pyrido[3′,4′:4,5]pyrrolo[1,2,3-de]quinoxalin-2(3H)-one], which Hygroscopicity [2] is on record?
A: The Hygroscopicity was “slightly hygroscopic”.

Q: What about the “Solubility (general)” value ([3]; free base form) of the same compound?
A: Its value is “very poor solubility”.

Q: And the “Solubility in DMSO” value ([3]; free base, DMSO)?
A: The value was “freely soluble”.

Q: And the Solubility in anisole ([3]; free base, anisole)?
A: Its Solubility in anisole is “sparingly soluble”.

Q: What about the “Solubility in ethyl salicylate” value ([3]; free base, ethyl salicylate) of the same compound?
A: Its value is “sparingly soluble”.

Q: And the “Solubility in most organic solvents and water” value ([3]; free base, most organic solvents and water)?
A: The value was “less than sparingly soluble”.

Q: And the solubility ([3]; free base, water, read-out: Solubility in water)?
A: Its solubility is less than 11 mg/mL.

Q: What about the solubility ([3]; organic solvent or mixture, free base, 2-butanol, read-out: Solubility in 2-butanol) of the same compound?
A: Its solubility is less than 11 mg/mL.

Q: What about the solubility ([3]; organic solvent or mixture, free base, cyclohexane, read-out: Solubility in cyclohexane) of the same compound?
A: The solubility was less than 11 mg/mL.

Q: And the solubility ([3]; organic solvent or mixture, free base, ethyl acetate, read-out: Solubility in ethyl acetate)?
A: Its solubility is less than 11 mg/mL.

Q: And the solubility ([3]; organic solvent or mixture, free base, heptane, read-out: Solubility in heptane)?
A: The solubility was less than 11 mg/mL.

Q: And the solubility ([3]; organic solvent or mixture, free base, methanol, read-out: Solubility in methanol)?
A: The solubility was less than 11 mg/mL.

Q: For `O=C1CN2c3c(cccc3[C@@H]3CN(CCCOc4ccc(F)cc4)CC[C@@H]32)N1` [Example 3], which “Colour change of the powder” value ([1]; at room temperature) is on record?
A: Its value is “slowly turns purple”.

Q: For `O=C1CN2c3c(cccc3[C@@H]3CN(CCCOc4ccc(F)cc4)CC[C@@H]32)N1` [hydrochloride crystals], which “Decomposition by NMR” value [4] is on record?
A: Its value is “show decomposition”.

Q: For `O=C1CN2c3c(cccc3[C@@H]3CN(CCCOc4ccc(F)cc4)CC[C@@H]32)N1` [oxalate salt], which Solubility in water [5] is on record?
A: The Solubility in water was 0.2 to 0.3 mg/mL.

Q: Which Solubility in water [5] does the source give for `O=C1CN2c3c(cccc3[C@@H]3CN(CCCOc4ccc(F)cc4)CC[C@@H]32)N1` [tosylate salt] here?
A: The Solubility in water was 1.2 to 1.7 mg/mL.

Q: What about the Discoloration on standing [6] of the same compound?
A: The Discoloration on standing was “discolors on standing”.
